Experimental data from patent publication US5556840A, “2',5'-phosphorothioate oligoadenylates as anitiviral agents” (Temple University - Of The Commonwealth System of Higher …, priority 1994, dated 1996).
“Also recorded” adds a separate entry of the source. Where two headings read alike, the source gives them in different places.

Legend:
RNase L [1] = experiment: Activation or inhibition of RNase L, general statements without assay named; assay type: biochemical
RNase L [2] = experiment: rRNA cleavage assay using L929 cell extracts (28S and 18S rRNA); assay type: biochemical, mouse; conditions: for concentration at which RNase L was activated to cleave 28S and 18S rRNA: L929 cell extracts, '>' = no activation at that concentration
Protocol: Activation of RNase L by 2',5'-phosphorothioate adenylate trimer cores and their 5'-monophosphates was also measured in an rRNA cleavage assay using L929 cell extracts.
The corresponding 5'-monophosphates pARp ARp A, pASp ARp A (at 10^-8 M) and pARp ASp A (at 10^-7 M) activated RNase L to cleave 28S and 18S rRNA.

[3] = tested on: HIV reverse transcriptase; experiment: HIV reverse transcriptase activity; assay type: biochemical, HIV (HTLV-IIIB); conditions: for Percent Inhibition of HIV reverse transcriptase / Reverse Transcriptase Activity: 200 uM; for Reverse Transcriptase Activity: control 187×10^3 cpm (reactions 1-4), 273×10^3 cpm (reactions 5-13)
Protocol: HIV reverse transcriptase (RNA-dependent DNA nucleotidyl-transferase) activity was assayed by a modification of the procedure of Poiesz et al. (Poiesz, B. J., Ruscetti , F. W., Gazdar, A. F., Bunn, P. S., Minna, J. D., and Gallo, R. C., Proc. Natl. Acad. Sci. U.S.A. 77: 7415-7419 (1980)).
Cultured H-9 cells are grown at 10^6 cells/ml in RPMI-1640 medium and 20% heat-inactivated fetal calf serum. Cell suspensions are centrifuged (1000×g, 10 min.) and the supernatant is removed. Virus particles are precipitated from this cell-free supernatant to which 0.3 ml of 4M NaCl and 3.6 ml of 30% (weight/volume) polyethylene glycol are added. The suspension is placed on ice for 2 hr following centrifugation at 15,000×g for 30 min at 0° C. The precipitate is resuspended in 200 microliters of 50% glycerol (vol./vol.)/25 mM Tris-HCl (pH 7.5)/5 mM dithiothreitol/50 mM KCl/0.025% Triton X-100. Virus particles are lysed by the addition of 100 microliters of 0.9% Triton X-100/1.5M KCl. Reverse transcriptase assays are performed at 37° C. for 1 hr with 10 microliters of the lysed virus solution in a final reaction volume of 100 microliters containing: 40 mM Tris-HCl (pH 7.8), 4 mM dithiothreitol, 45 mM KCl and 2.5 micrograms of template primer [poly(A)-dT15, 0.5 micrograms/microliter] (with a signal Mg^++ concentration of 10 mM). At this time, 10 microliters of the 2',5'-phosphorothioate oligoadenylate is added to a final concentration of 200 micromolar. Reaction mixtures also contain 4 micromoles of [^3 H]dTTP. Reactions are stopped by the addition of cold 5% trichloroacetic acid and filtered through nitrocellulose discs. The discs are dried and the radioactivity bound to the discs is determined. Reverse transcriptase activity is expressed as the percent relative to a control.
The compounds were assayed in the above manner in two sets, each set having a separate set of controls. The compounds of reactions 1-4 were assayed against control #1, which was 187×10^3 cpm. The compounds used in reactions 5-13 were assayed against control #2, which was 273×10^3 cpm.

phosphodiesterases = experiment: Metabolic stability, general statements; assay type: in vitro ADME
[4] = tested on: tobacco mosaic virus (TMV); experiment: TMV replication in intact Nicotiana glutinosa plants (local lesions); assay type: in vivo; conditions: for Percent TMV Inhibition: 2 × 10^-5 M in infecting solution, 48 hr after infection, half-leaves of N. glutinosa
Protocol: Carborundum (400 mesh) was sprinkled lightly onto leaves. Solutions containing 0.2 micrograms per ml of TMV and 2×10^-5 M 2',5'-phosphorothioate oligoadenylate in phosphate buffer were applied onto half-leaves of N. glutinosa with either a gloved finger or with a pipettor. The remaining half-leaves were controls (inoculated with the buffer solution containing TMV, but no active compound). The infection was allowed to proceed 48 h under continuous illumination of about 1500 Lx at which time local virus lesions appeared. Inhibition of TMV replication was calculated as the percent of local lesions produced in 2',5'-phosphorothioate oligoadenylate-treated half-leaves compared to control half-leaves.
^4 Inhibition of TMV replication was detected 48 hr after infection
and was calculated as the percent of local lesions produced in treated
halfleaves of N. glutinosa compared to control halfleaves.

[5] = tested on: 2'-phosphodiesterase (2'-PDE), L cell extract; experiment: Hydrolysis by 2'-phosphodiesterase in L cell extract; assay type: in vitro ADME
From the text: The four 2,5-phosphorothioate adenylate trimer cores were further characterized by hydrolysis with the enzyme 2'-phosphodiesterase ("2'-PDE"), an exoribonuclease found in L cell extract The enzyme cleaves from the 2'/3'-terminus.
(§1) The metabolic stability of the 2,5'-phosphorothioate dimer and trimer cores is markedly greater than authentic 2-5A. The rate of hydrolysis of the trimer cores by the 3'-exonuclease SVPD is, in order of decreasing stability: ASp ARp A>ARp ARp A>>>A3. […] The 3'->'5'direction of stepwise cleavage by SVPD is blocked by an Sp configuration, preventing cleavage of the upstream adjacent phosphorothioate linkage. […] With both SVPD and 2'-PDE, the dimer cores (either ARp A or ASp A) accumulate following hydrolysis of the ARp ARp A, ASp ARp A and ARp ASp A trimer cores. Hydrolysis of the 2-5A molecule by SVPD and 2'-PDE proceeds from the 2'/3'-terminus. Therefore, introduction of the phosphorothioate group into the trimer core results in the accumulation of the ARp A or ASp A dimer cores from the 5'-terminus and the accumulation of AMPS from the 2'/3'-terminus (Table 3). With authentic A3, there is no detectable accumulation of A2 following hydrolysis by SVPD or 2'-PDE.

SVPD = experiment: Hydrolysis by SVPD (snake venom phosphodiesterase); assay type: in vitro ADME
Protocol: It is known that the enzyme SVPD preferentially cleaves Rp-3',5'- or 2',5'-phosphorothioate linkages from the 2'/3'-terminus. Nelson et al, J. Org. Chem. 49:2314-2317 (1984); Eppstein et al, J. Biol. Chem. 261:5999-6003 (1986); Lee et al, Biochemistry 24:551-555 (1985). SVPD hydrolysis of the chemically synthesized dimer core ARp A yielded adenosine and AMPS in a molar ratio of 1:1, respectively; the half-life was 3 hours (Table 3).
as §1

serum phosphodiesterases = experiment: Hydrolysis by serum phosphodiesterases
RNase L [6] = experiment: Core-cellulose assay: activation of partially-purified RNase L to hydrolyze poly(U)-3'-[32P]pCp; assay type: biochemical, mouse
Protocol: FIG. 1B represents the results of a core-cellulose assay indicating the ability of the 2',5'-phosphorothioate adenylate trimer cores and 5'-monophosphates to activate partially-purified RNase L from L929 cell extracts to hydrolyze the substrate polY(U)-3'-[^32 P]pCp. Activation of RNase L was determined by conversion of poly (U )-3'-[^32 P]pCp to acid-soluble fragments. 100% represents 30,000 cpm of labelled poly(U)-3'-[^32 P]pCp bound to glass fiber filters. The curves are labelled in the same manner as FIG. 1A.
The 2',5'-phosphorothioate cores, with one exception, have the correct stereoconfiguration to activate RNase L. The activation of partially-purified RNase L by the 2',5'-phosphorothioates was measured according to the core-cellulose assay of Silverman, Analyt. Biochem. 144:450-460 (1985) which relies on hydrolysis of the substrate poly(U)-3-[^32 P]pCp. […] (FIG. 1B) The order of activation of the trimer cores and the corresponding 5'-monophosphates is: RpRp>SpRp>RpSp (FIG. 1B).

Molecule | effect on RNase L activation (result in words) (RNase L [1]) | concentration at which RNase L was activated to cleave 28S and 18S rRNA (RNase L [2]) | Percent Inhibition of HIV reverse transcriptase [3] | Reverse Transcriptase Activity [3] | Percent TMV Inhibition [4] | hydrolysis by L cell extract / 2'-PDE (result in words) [5] | half life, hydrolysis by SVPD (SVPD) | hydrolysis by serum phosphodiesterases (result in words) (serum phosphodiesterases) | hydrolysis by SVPD (result in words) (SVPD) | also measured
5'-O-Phosphoryl-(Sp)-thioadenylyl-(2'-5')-(Sp)-thioadenylyl-(2'-5')-adenosine [pASp ASp A] | selectively inhibits activation of RNase L at physiological concentrations; also recorded: metabolically stable inhibitor of RNase L; also recorded: most effective inhibitor of RNase L reported to date | > 10^-5 M | 15% | 232 10^3 cpm | 40% | – | – | – | – | inhibition of HIV reverse transcriptase (result in words) [3]: inhibit HIV reverse transcriptase activity and tobacco mosaic virus replication; metabolic stability (result in words) (phosphodiesterases): metabolically stable to specific and non-specific phosphodiesterases; inhibition of TMV replication (result in words) ([4]; in vivo): inhibit HIV reverse transcriptase activity and tobacco mosaic virus replication
5'-O-Phosphoryl-(Rp)-thioadenylyl-(2'-5')-(Sp)-thioadenylyl-(2'-5')-adenosine [pARp ASp A] | relatively metabolically stable and highly efficient activator for RNase L | 10^-7 M | 25% | 206 10^3 cpm | 15% | – | – | – | – | –
Nc1ncnc2c1ncn2[C@@H]1O[C@H](CO[P@@](O)(=S)O[C@@H]2[C@H](O)[C@@H](CO)O[C@H]2n2cnc3c(N)ncnc32)[C@@H](O)[C@H]1O [Compound 6A, P-Thioadenylyl-(2'-5')-adenosine] | – | – | – | – | – | not cleaved | 3 h | not cleaved | – | hydrolysis by L cell extract / 2'-PDE (result in words) ([5]; listed as ARp A): not substrates for 2'-PDE
(Sp)-P-thioadenylyl-(2'-5')-(Sp)-P-thioadenylyl-(2'-5')-(Sp)-P-thioadenylyl-(2'-5')-adenosine [ASp ASp ASp A] | – | – | 45% | 149 10^3 cpm | 70% | – | – | – | – | –
(Sp)-P-Thioadenylyl-(2'-5')-(Rp)-P-thioadenylyl-(2'-5')-adenosine [Compound 9B] | – | 10^-5 M | 6% | 258 10^3 cpm | 33% | – | 8 h | not cleaved | yielded ASp A and AMPS | half life, hydrolysis by L cell extract [5]: 15 h
(Rp)-P-Thioadenylyl-(2'-5')-(Rp)-P-thioadenylyl-(2'-5')-adenosine [Compound 9A] | – | 10^-5 M | 18% | 224 10^3 cpm | 57% | – | 1 h | – | hydrolysis by SVPD to yield AMPS plus ARp A | half life, hydrolysis by L cell extract [5]: 18 h; half life, hydrolysis by serum phosphodiesterases (serum phosphodiesterases): 8 h
(Rp)-P-thioadenylyl-(2'-5')-(Sp)-P-thioadenylyl-(2'-5')-(Sp)-P-thioadenylyl-(2'-5')-adenosine [ARp ASp ASp A] | – | – | 46% | 147 10^3 cpm | 80% | – | – | – | – | –
5'-O-Phosphoryl-(Sp)-thioadenylyl-(2'-5')-(Rp)-thioadenylyl-(2'-5')-adenosine [pASp ARp A] | – | 10^-8 M | 16% | 230 10^3 cpm | 23% | – | – | – | – | –
(Sp)-P-Thioadenylyl-(2'-5')-(Sp)-P-thioadenylyl-(2'-5')-adenosine [Compound 10B] | selectively inactivates RNase L | > 10^-4 M | 20% | 219 10^3 cpm | 80% | not cleaved | – | not cleaved | not substrates for SVPD; also recorded: not cleaved | inhibition of RNase L activation, rRNA cleavage assay (result in words) (RNase L [2]): inhibit RNase L activation; hydrolysis by L cell extract / 2'-PDE (result in words) ([5]; listed as ASp ASp A): not cleaved by L-cell extract; hydrolysis by SVPD (result in words) (SVPD; listed as ASp ASp A): not substrates of SVPD; inhibition of RNase L activation, core-cellulose assay (result in words) (RNase L [6]): inhibit RNase L activation; concentration up to which RNase L was not activated, core-cellulose assay (RNase L [6]; poly(U)-3'-[32P]pCp substrate, not activated at the concentration): > 10^-3 M
Nc1ncnc2c1ncn2[C@@H]1O[C@H](CO[P@](O)(=S)O[C@@H]2[C@H](O)[C@@H](CO)O[C@H]2n2cnc3c(N)ncnc32)[C@@H](O)[C@H]1O [Compound 6B, P-Thioadenylyl-(2'-5')-adenosine] | – | – | – | – | – | not cleaved | – | not cleaved | not cleaved | hydrolysis by L cell extract / 2'-PDE (result in words) ([5]; listed as ASp A): not substrates for 2'-PDE; hydrolysis by SVPD (result in words) (SVPD; listed as ASp A): not a substrate for SVPD
